ChEMBL document CHEMBL3727356, “Therapeutic compounds and compositions” (2014)

Legend:
Pyruvate kinase PKLR [1] = biological target: T1, Pyruvate kinase PKLR (Homo sapiens, UniProt P30613); test: Activation of wild type PKR (unknown origin) incubated for 60 mins in presence of ADP, PEP and NADH by Spectraax microplate reader based assay
Pyruvate kinase PKLR [2] = biological target: Pyruvate kinase PKLR (Homo sapiens, UniProt P30613, R532W); test: Activation of PKR R532W mutant (unknown origin) incubated for 60 mins in presence of ADP, PEP and NADH by Spectraax microplate reader based assay
Sequence of Pyruvate kinase PKLR (Homo sapiens, UniProt P30613, R532W) (P30613 whole entry R532W): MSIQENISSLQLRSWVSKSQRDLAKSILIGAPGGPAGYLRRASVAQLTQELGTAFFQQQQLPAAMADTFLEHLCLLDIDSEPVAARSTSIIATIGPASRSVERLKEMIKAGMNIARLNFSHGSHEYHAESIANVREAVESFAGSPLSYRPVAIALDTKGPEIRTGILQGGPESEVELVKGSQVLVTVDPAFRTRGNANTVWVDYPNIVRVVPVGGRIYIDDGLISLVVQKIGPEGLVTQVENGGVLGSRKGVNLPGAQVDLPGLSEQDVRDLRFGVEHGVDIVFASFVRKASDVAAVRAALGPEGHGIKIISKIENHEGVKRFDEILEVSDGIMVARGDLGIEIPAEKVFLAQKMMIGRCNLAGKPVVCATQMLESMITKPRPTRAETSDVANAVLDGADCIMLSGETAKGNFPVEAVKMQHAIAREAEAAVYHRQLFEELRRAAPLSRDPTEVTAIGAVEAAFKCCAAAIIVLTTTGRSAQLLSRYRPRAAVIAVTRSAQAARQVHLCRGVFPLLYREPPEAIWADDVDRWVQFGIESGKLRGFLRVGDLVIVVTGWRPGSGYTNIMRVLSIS

Pyruvate kinase PKLR [3] = biological target: Pyruvate kinase PKLR (Homo sapiens, UniProt P30613, R510Q); test: Activation of PKR R510Q mutant (unknown origin) incubated for 60 mins in presence of ADP, PEP and NADH by Spectraax microplate reader based assay
Sequence of Pyruvate kinase PKLR (Homo sapiens, UniProt P30613, R510Q) (P30613 whole entry R510Q): as the sequence (P30613 whole entry R532W) above, with R510Q, W532R counted along it

Pyruvate kinase PKLR [4] = biological target: T1, Pyruvate kinase PKLR; test: Activation of wild type PKR (unknown origin) by cell based assay

Measured: AC50

T1 sequence (P30613 whole entry): as the sequence (P30613 whole entry R532W) above, with W532R counted along it

CC(C)CCC1(O)CCN(C(=O)c2ccc(NS(=O)(=O)c3cccc4scnc34)cc2)CC1
< 100 nM: all assays above

O=C(c1ccc(NS(=O)(=O)c2cccc3cccnc23)cc1)N1CCC(O)(Cc2ccccc2)CC1
< 100 nM: all assays above
